ChEMBL document CHEMBL5385941, “Synthesis and biological evaluation of hydantoin derivatives as potent antiplasmodial agents” (Bioorg Med Chem Lett, 2024)

How the values were obtained:
Plasmodium falciparum = experiment: Antiplasmodial activity against Plasmodium falciparum 3D7 trophozoites assessed as parasite growth inhibition; type: functional, organism-based
[1] = Cytotoxicity against human MRC5 cells assessed as cell growth inhibition measured after 24 hrs by MTT assay; type: toxicity, cell-based
[2] = Cytotoxicity against human MRC5 cells assessed as cell viability at 3.125 to 100 uM measured after 24 hrs by MTT assay relative to control; type: toxicity, cell-based; conditions: dose 3.125-100 µM, read-out: Activity

For C[C@H]1NC(=O)NC1=O, the IC50 (Plasmodium falciparum) was 916 µM, the IC50 at 24 h [1] was greater than 100 µM and the viability at 24 h, up to 100 µM [2] was greater than 80%.

O=C1NC(=O)[C@@H](c2ccccc2)N1 gave an IC50 (Plasmodium falciparum) greater than 1000 µM, an IC50 at 24 h [1] greater than 100 µM and a viability at 24 h, up to 100 µM [2] greater than 80%.

With CSCC[C@H]1NC(=O)NC1=O the IC50 (Plasmodium falciparum) was greater than 1000 µM, the IC50 at 24 h [1] was greater than 100 µM and the viability at 24 h, up to 100 µM [2] was greater than 80%.

Molecule Cc1ccc(S(=O)(=O)N2C(=O)CNC2=O)cc1 has an IC50 (Plasmodium falciparum) of 0.00397 µM, an IC50 at 24 h [1] greater than 100 µM and a viability at 24 h, up to 100 µM [2] greater than 80%.

For CC(C)C(=O)N1C(=O)N[C@H](c2ccccc2)C1=O, the IC50 (Plasmodium falciparum) was 27.5 µM, the IC50 at 24 h [1] was greater than 100 µM and the viability at 24 h, up to 100 µM [2] was greater than 80%.

For O=C1CNC(=O)N1C(=O)c1cc([N+](=O)[O-])cc([N+](=O)[O-])c1, the IC50 (Plasmodium falciparum) was 625 µM, the IC50 at 24 h [1] was greater than 100 µM and the viability at 24 h, up to 100 µM [2] was greater than 80%.

For CC(C)C(=O)N1C(=O)CNC1=O, the IC50 (Plasmodium falciparum) was greater than 1000 µM, the IC50 at 24 h [1] was greater than 100 µM and the viability at 24 h, up to 100 µM [2] was greater than 80%.

Work on O=C1CNC(=O)N1C(=O)Cc1ccccc1 yielded an IC50 (Plasmodium falciparum) of 748 µM, an IC50 at 24 h [1] greater than 100 µM and a viability at 24 h, up to 100 µM [2] greater than 80%.

CC(=O)N1C(=O)CNC1=O gave an IC50 (Plasmodium falciparum) of 147 µM, an IC50 at 24 h [1] greater than 100 µM and a viability at 24 h, up to 100 µM [2] greater than 80%.

O=C1CNC(=O)N1 [HYDANTOIN] gave an IC50 (Plasmodium falciparum) of 623 µM, an IC50 at 24 h [1] greater than 100 µM and a viability at 24 h, up to 100 µM [2] greater than 80%.
